According to PMC7827406, “Structure–Activity Relationship (SAR) Study of Spautin-1 to Entail the Discovery of Novel NEK4 Inhibitors” (International Journal of Molecular Sciences, 2021):
Read-outs that look alike come from different tables or passages of the source.

Legend:
Test in all cases: biochemical
Set-up in all cases: Eurofins KinaseProfiler full panel at Km ATP, residual kinase activity (%) relative to DMSO
[1] = biological target: T1, Abl(h) (Homo sapiens, UniProt P00519)
T1 construct: gene ABL1
T1 sequence (P00519 whole entry): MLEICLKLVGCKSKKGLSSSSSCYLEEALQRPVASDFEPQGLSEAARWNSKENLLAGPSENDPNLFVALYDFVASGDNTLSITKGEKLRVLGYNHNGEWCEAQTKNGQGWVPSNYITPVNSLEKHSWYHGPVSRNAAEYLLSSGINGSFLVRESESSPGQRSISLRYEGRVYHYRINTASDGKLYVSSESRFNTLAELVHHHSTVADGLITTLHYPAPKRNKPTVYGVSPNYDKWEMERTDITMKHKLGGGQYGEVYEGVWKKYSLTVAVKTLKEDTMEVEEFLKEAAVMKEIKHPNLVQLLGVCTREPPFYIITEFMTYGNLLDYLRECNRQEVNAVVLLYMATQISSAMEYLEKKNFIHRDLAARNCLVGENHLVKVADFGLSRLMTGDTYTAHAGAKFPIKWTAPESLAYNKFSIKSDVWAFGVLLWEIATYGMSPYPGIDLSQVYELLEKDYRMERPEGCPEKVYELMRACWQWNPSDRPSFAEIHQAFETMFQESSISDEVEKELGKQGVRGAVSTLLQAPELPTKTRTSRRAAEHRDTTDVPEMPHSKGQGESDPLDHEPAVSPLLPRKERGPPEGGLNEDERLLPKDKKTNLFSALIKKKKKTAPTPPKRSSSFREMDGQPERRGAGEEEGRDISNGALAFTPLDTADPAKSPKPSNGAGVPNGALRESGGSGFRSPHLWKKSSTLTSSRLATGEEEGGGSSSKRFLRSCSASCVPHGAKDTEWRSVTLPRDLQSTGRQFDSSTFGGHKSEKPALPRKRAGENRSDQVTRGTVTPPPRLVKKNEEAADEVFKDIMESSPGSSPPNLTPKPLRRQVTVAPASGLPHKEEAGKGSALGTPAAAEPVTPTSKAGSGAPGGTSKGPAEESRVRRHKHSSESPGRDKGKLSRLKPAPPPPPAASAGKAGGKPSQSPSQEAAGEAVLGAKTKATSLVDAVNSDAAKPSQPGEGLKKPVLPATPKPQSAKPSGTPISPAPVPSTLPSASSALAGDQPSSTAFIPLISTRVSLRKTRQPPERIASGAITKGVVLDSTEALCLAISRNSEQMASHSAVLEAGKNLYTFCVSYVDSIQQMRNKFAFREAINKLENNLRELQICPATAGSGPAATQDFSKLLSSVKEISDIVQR
In short: (§1)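 Radiometric kinase activity assays were run with ATP at Km and compounds at 10 µM, and remaining activity (%) was reported. A separate competitive binding screen measured DNA-tagged kinase displaced from immobilized active-site ligands by qPCR, giving percent kinase still bound at 10 µM compound in DMSO.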

[2] = biological target: EphA2(h) (Homo sapiens, UniProt P29317)
Sequence of EphA2(h) (P29317 whole entry): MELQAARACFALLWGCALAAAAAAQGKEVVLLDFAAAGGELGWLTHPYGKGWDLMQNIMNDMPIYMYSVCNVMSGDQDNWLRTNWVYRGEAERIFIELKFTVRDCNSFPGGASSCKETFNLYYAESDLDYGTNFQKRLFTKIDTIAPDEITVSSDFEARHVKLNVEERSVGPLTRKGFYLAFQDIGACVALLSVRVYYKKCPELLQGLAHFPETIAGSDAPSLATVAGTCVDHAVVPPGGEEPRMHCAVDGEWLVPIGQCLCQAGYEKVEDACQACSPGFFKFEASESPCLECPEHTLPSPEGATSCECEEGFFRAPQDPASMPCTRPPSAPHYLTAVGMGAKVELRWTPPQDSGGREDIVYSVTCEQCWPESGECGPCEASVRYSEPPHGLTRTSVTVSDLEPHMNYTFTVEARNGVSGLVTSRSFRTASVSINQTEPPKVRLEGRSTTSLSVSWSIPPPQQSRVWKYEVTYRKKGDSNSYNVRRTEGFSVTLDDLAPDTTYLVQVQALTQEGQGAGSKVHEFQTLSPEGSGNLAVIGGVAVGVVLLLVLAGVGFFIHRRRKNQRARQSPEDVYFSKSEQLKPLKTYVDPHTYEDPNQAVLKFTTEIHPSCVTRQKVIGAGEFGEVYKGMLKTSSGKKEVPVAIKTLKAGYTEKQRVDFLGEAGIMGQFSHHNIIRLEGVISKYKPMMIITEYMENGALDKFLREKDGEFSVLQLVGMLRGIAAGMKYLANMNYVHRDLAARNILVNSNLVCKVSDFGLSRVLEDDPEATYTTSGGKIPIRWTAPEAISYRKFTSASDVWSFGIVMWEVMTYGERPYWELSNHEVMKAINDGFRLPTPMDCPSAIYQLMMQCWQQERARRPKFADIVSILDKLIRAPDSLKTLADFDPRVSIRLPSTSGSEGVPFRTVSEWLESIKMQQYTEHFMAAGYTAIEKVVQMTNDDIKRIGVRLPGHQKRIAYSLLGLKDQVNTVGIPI
In short: as §1

[3] = biological target: T2, EphB4(h) (Homo sapiens, UniProt P54760)
T2 sequence (P54760 1-987): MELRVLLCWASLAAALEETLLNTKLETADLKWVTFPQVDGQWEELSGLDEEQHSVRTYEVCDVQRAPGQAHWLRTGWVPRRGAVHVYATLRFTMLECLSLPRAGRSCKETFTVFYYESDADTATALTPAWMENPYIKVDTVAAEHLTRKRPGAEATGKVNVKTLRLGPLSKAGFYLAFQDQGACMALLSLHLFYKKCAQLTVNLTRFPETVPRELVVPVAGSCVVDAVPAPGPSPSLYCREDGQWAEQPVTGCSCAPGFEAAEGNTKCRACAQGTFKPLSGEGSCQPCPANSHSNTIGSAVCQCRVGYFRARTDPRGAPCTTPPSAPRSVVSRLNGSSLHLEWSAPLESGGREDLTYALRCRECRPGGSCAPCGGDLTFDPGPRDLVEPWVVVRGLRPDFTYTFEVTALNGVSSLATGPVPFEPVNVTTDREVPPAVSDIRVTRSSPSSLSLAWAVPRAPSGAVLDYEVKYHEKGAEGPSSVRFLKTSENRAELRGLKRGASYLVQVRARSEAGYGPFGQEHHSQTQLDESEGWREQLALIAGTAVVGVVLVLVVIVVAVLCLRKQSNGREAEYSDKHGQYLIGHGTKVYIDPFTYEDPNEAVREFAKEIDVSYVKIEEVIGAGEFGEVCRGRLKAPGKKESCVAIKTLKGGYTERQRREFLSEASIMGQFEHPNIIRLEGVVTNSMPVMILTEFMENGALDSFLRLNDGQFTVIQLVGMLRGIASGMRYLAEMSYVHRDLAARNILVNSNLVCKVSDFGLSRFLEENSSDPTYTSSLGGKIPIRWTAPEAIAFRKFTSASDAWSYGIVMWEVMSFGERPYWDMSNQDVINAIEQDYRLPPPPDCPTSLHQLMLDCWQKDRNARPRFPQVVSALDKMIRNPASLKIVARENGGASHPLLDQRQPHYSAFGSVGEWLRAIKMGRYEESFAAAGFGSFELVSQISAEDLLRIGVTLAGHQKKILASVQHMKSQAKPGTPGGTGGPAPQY
In short: as §1

[4] = biological target: T3, Mer(h) (Homo sapiens, UniProt Q12866)
T3 construct: gene MERTK
T3 sequence (Q12866 1-999): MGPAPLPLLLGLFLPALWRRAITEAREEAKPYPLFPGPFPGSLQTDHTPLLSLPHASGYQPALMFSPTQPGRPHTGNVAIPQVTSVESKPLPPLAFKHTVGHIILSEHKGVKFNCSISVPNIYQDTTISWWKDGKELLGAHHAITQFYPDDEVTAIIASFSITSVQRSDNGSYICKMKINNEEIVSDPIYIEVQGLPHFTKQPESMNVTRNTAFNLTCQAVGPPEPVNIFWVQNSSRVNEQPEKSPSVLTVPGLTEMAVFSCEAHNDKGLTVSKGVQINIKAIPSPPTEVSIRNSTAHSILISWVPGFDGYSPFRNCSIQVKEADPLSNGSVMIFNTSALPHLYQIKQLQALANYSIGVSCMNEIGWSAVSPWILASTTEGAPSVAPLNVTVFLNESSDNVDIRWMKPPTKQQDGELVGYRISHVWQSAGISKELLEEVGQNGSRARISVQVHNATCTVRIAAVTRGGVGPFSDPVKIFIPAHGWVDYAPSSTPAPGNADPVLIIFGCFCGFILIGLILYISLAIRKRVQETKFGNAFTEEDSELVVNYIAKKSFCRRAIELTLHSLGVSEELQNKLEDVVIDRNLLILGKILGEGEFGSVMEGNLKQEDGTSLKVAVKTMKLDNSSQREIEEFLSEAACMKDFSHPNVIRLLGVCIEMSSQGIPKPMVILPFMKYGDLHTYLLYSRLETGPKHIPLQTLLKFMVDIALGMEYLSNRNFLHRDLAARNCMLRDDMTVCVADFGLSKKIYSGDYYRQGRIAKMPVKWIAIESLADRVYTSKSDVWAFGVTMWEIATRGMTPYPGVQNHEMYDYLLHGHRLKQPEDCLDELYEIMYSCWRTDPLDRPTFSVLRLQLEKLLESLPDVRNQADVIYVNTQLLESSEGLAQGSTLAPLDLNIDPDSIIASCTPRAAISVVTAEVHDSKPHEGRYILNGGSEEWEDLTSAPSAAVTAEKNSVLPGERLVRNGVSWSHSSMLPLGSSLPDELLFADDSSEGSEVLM
In short: as §1

[5] = biological target: T4, ROCK-II(h) (Homo sapiens, UniProt O75116)
T4 construct: gene ROCK2
T4 sequence (O75116 whole entry): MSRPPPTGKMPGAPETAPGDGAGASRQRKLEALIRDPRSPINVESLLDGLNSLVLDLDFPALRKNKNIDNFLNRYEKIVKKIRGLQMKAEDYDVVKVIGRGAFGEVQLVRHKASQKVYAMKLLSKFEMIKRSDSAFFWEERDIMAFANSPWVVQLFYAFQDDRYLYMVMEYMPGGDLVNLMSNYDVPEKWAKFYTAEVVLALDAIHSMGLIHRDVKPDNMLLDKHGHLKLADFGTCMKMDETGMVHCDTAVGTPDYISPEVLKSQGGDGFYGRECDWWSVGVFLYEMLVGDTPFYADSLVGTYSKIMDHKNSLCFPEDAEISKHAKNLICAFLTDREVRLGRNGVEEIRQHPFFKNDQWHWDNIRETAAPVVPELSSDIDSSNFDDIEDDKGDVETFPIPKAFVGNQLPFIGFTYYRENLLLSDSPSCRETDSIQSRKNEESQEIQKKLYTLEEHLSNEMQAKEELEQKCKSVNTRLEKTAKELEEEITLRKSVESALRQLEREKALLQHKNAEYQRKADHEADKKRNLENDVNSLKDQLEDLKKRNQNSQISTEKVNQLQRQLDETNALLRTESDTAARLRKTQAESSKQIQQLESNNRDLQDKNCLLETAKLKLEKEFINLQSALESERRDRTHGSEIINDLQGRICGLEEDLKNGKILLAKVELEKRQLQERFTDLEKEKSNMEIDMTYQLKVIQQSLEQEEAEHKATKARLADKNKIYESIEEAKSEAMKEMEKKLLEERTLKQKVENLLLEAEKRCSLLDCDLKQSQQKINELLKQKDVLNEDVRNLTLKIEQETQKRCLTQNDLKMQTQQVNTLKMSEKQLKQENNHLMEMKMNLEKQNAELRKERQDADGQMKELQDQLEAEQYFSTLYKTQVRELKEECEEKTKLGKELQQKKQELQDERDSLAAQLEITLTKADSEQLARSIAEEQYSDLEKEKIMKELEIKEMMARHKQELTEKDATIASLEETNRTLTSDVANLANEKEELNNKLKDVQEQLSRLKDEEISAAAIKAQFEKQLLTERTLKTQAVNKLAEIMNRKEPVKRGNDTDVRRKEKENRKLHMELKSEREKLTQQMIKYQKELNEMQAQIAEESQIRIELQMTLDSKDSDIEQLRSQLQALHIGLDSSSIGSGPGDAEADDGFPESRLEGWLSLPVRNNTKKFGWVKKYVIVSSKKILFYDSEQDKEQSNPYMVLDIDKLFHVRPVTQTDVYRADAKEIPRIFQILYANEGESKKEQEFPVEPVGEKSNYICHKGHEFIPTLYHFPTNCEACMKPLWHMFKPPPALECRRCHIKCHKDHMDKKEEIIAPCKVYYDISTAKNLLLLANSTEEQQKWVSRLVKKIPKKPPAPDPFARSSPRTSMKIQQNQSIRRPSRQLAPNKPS
In short: as §1

[6] = biological target: T5, ZIPK(h) (Homo sapiens, UniProt O43293)
T5 construct: gene DAPK3
T5 sequence (O43293 whole entry): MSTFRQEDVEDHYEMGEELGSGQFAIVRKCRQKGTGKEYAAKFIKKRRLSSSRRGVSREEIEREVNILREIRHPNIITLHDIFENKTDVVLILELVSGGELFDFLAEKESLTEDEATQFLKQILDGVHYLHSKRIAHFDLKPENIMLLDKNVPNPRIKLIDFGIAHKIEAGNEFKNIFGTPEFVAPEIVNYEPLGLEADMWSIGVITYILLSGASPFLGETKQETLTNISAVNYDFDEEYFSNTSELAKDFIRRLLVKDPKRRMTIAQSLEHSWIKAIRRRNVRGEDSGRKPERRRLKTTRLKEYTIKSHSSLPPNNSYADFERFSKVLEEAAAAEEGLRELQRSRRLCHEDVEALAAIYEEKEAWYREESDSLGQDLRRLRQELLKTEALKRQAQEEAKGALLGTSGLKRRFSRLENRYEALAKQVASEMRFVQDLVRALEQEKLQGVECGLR
In short: as §1

[7] = read-out: Residual activity (%) Spautin-1 5aa
[8] = read-out: Residual activity (%) 5as
[9] = read-out: Residual activity (%) 5at
[10] = read-out: Residual activity (%) 5ay

**Q.** For `Fc1ccc(CNc2ncnc3ccc(F)cc23)cc1` [5aa, 6-Fluoro-N-(4-fluorobenzyl)-4-Quinazolinamine], which remaining activity at 10 µM [1, 7] is on record?
**A.** Its remaining activity at 10 µM is 83%.

**Q.** And the remaining activity at 10 µM [2, 7]?
**A.** The remaining activity at 10 µM was 73%.

**Q.** What about the remaining activity at 10 µM [3, 7] of the same compound?
**A.** The remaining activity at 10 µM was 68%.

**Q.** What about the remaining activity at 10 µM [4, 7] of the same compound?
**A.** The remaining activity at 10 µM was 83%.

**Q.** And the remaining activity at 10 µM [5, 7]?
**A.** The remaining activity at 10 µM was 88%.

**Q.** What about the remaining activity at 10 µM [6, 7] of the same compound?
**A.** Its remaining activity at 10 µM is 97%.

**Q.** With `Fc1ccc(CCNc2ncnc3ccc(F)cc23)cc1` [5as, 6-Fluoro-N-[2-(4-Fluorophenyl)Ethyl]-4-Quinazolinamine] as the compound, how does the remaining activity at 10 µM [1, 8] read?
**A.** The remaining activity at 10 µM was 91%.

**Q.** What about the remaining activity at 10 µM [2, 8] of the same compound?
**A.** The remaining activity at 10 µM was 90%.

**Q.** What about the remaining activity at 10 µM [3, 8] of the same compound?
**A.** The remaining activity at 10 µM was 59%.

**Q.** What about the remaining activity at 10 µM [4, 8] of the same compound?
**A.** Its remaining activity at 10 µM is 83%.

**Q.** And the remaining activity at 10 µM [5, 8]?
**A.** The remaining activity at 10 µM was 81%.

**Q.** And the remaining activity at 10 µM [6, 8]?
**A.** Its remaining activity at 10 µM is 103%.

**Q.** For `Fc1ccc2ncnc(NCCc3ccc(Cl)cc3)c2c1` [5at, N-[2-(4-Chlorophenyl)Ethyl]-6-Fluoro-4-Quinazolinamine], which remaining activity at 10 µM [1, 9] is on record?
**A.** The remaining activity at 10 µM was 96%.

**Q.** And the remaining activity at 10 µM [2, 9]?
**A.** Its remaining activity at 10 µM is 99%.

**Q.** And the remaining activity at 10 µM [3, 9]?
**A.** Its remaining activity at 10 µM is 68%.

**Q.** And the remaining activity at 10 µM [4, 9]?
**A.** Its remaining activity at 10 µM is 89%.

**Q.** What about the remaining activity at 10 µM [5, 9] of the same compound?
**A.** Its remaining activity at 10 µM is 79%.

**Q.** What about the remaining activity at 10 µM [6, 9] of the same compound?
**A.** Its remaining activity at 10 µM is 109%.

**Q.** What does the source list for `COc1ccc2ncnc(Nc3cccc(F)c3)c2c1` [5ay, N-(3-Fluorophenyl)-6-Methoxy-4-Quinazolinamine]?
**A.** remaining activity at 10 µM [1, 10]: 74%; remaining activity at 10 µM [2, 10]: 75%; remaining activity at 10 µM [3, 10]: 63%; remaining activity at 10 µM [4, 10]: 68%; remaining activity at 10 µM [5, 10]: 84%; remaining activity at 10 µM [6, 10]: 108%
